In article PMC6749073 (Frontiers in Pharmacology, 2019):

Tests used:
[1] = Pharmacokinetic and toxicokinetic characterization in Beagle dogs; assay type: in vivo; settings: single dose 10, 20, 40 mg/kg
Source text: Furthermore, AI was employed to evaluate the accumulated toxicity of the two complexes.

[2] = system: A549/DDP; assay: MTT cell viability assay, A549/DDP; assay type: cell-based, human; settings: A549/DDP (DDP-resistant), 48 h
Experimental: (§1) Cells were seeded at a density of 1 × 10^4 cells per well in 96-well plates. The following day, these cells were washed with PBS and exposed to different concentrations of testing compounds in culture medium for 48 h. MTT solution (10 μl at 5 mg/ml) was added to each well. After 4 h of incubation at 37°C, the medium was removed, and the insoluble precipitate was dissolved in 100 μl DMSO (Sigma, St. Louis, MO, USA). The absorbance of the dissolved solution at 490 nm was measured using a microplate reader (TECAN A-5082; Megllan, Austria). Cell viability percentages were calculated by dividing the mean optical density (OD) of compound-containing wells by that of the control wells. Each experiment was replicated three times. The IC50 of testing drugs was calculated with Statistical Product and Service Solutions software (SPSS, version 16.0).

[3] = system: rats; assay: Renal pathology (H&E) in rats; assay type: in vivo; settings: 7.5, 15, and 30 mg/kg twice a week for 4 weeks
Experimental: Total 30 rats were employed in the experiments, 20 rats were euthanized with isoflurane 3 days after the last administration, and the kidneys were excised and examined by the H&E staining, and the remaining 10 rats were handled after the recovery period (two weeks after the last administration). We found drug-related renal changes were appeared in the rats, especially in the high dose group (30 mg/kg). Of all the changes, the renal tubular epithelium denaturation/regeneration and tubular dilation are the most obvious, which are early appeared after 7.5 mg/kg treatment at both last administration and during recovery period.

[4] = system: H292; assay: MTT cell viability assay, H292; assay type: cell-based, human; settings: 48 h
Experimental: as §1

[5] = system: LTEP-A-2; assay: MTT cell viability assay, LTEP-A-2; assay type: cell-based, human; settings: 48 h
Experimental: as §1

[6] = system: LTEP-A-2 xenograft tumor; assay: LTEP-A-2 xenograft tumor growth in nude mice; assay type: in vivo; settings: comparable to DDP 6 mg/kg and CBP 60 mg/kg
[7] = system: A549, NCI-H292, NCI-H460, and LTEP-A-2 xenograft models; assay: ED50 (50% reduction of xenograft tumor volume) in nude mice; assay type: in vivo; settings: dose reducing xenograft tumor volume by 50%; average over A549, NCI-H292, NCI-H460, and LTEP-A-2 xenograft models
Experimental: After injection, the animals’ condition was monitored every day for over 1 week by an observer who was blinded to the dose and drug allocation.
Estimates for ED50 and LD50 were calculated through nonlinear regression, data were fitted to a sigmoidal dose-response relationship in Prism (version 4.0a; GraphPad Software, Inc., San Diego, CA). The data were fitted to the equation:
Y=Ymin+Ymax−Ymin/1+10^(LogED50−X)∗HillSlope
where X is the logarithm of concentration, and Y is the response.

[8] = system: JNK, Erk1/2 and p38 phosphorylation in A549 and H292 cells; assay: Western blot of MAPK phosphorylation (JNK, Erk1/2, p38); assay type: cell-based, human
Experimental: Cells were treated with diplatin, DDP, and CBP before being lysed. After centrifugation at 12,000 rpm for 10 min, an equal amount of protein from each group was subjected to electrophoresis on 10% SDS-PAGE gels. The proteins in the gel were then electroblotted onto polyvinylidene fluoride (PVDF) membranes (Millipore, Massachusetts, USA). After incubation in the blocking buffer (1× TBS, 0.1% Tween-20, and 5% w/v dry nonfat milk) for 1 h at room temperature, the membranes were incubated with the primary antibody at 4°C overnight. Next, membranes were rinsed with TBST, and then secondary antibodies were applied (LI-COR, USA) at room temperature for 1 h. Immunoreactive bands were visualized by a two-color infrared imaging system (Odyssey, LI-COR, USA).

[9] = system: Calu-3; assay: MTT cell viability assay, Calu-3; assay type: cell-based, human; settings: 48 h
Experimental: as §1

[10] = system: A549; assay: MTT cell viability assay, A549; assay type: cell-based, human; settings: 48 h
Experimental: as §1

[11] = system: VEGF, p53, and Bax expression in the xenograft A549 and H292 lung tumor tissue; assay: Immunohistochemistry of xenograft tumor sections; assay type: in vivo, mice
Experimental: All tumor tissues were harvested and fixed in 4% buffered formalin. After 72 h, tumor tissues were embedded in paraffin and cut into 4 μm sections for immunohistochemistry assays. The streptavidin–biotin complex (SABC) method was used for immunohistochemical staining. Lung tissue sections from mice with no intervention were used as controls. The section slides were baked in an oven at 60°C for 1 h, washed in xylene, and hydrated in different concentrations of alcohol. Subsequently, endogenous peroxidase activity was quenched with 3% hydrogen peroxide for 10 min. To unmask the antigen, the slides were submerged in citrate buffer (0.01 M, pH 6.0) at 95°C for 5 min. The slides were blocked for 20 min with normal goat serum blocking solution. Primary antibodies were incubated at 4°C overnight. Primary antibody dilutions were as follows: 1:200 for VEGF, p53, and Bax. Immunocomplexes were visualized with 3,3′-diaminobenzidine (DAB), and the density was measured with the DP2-BSW software (Olympus, Tokyo, Japan).

[12] = system: HCC827; assay: MTT cell viability assay, HCC827; assay type: cell-based, human; settings: 48 h
Experimental: as §1

[13] = system: BEAS-2B normal human lung epithelial cell line; assay: MTT cell viability assay, BEAS-2B; assay type: cell-based
Experimental: as §1

[14] = Body weight and tolerability of A549 and H292 xenograft mice; assay type: in vivo
Experimental: (§3) Cells in logarithmic growth were washed with PBS and suspended in serum-free medium. Portions of the suspension (5 × 10^6 cells in 0.1 ml/mouse) were mixed at a 3:1 ratio with Matrigel basement membrane matrix and injected subcutaneously into the mice. Following 2 weeks of growth, tumor tissues were cut into multiple 2 × 2 × 2 mm^3 pieces and implanted using a range trocar subcutaneously (s.c. injection) into the left forepaw armpit of each mouse ([Jiang et al., 2017]). Treatment with pharmacology was started when the tumors reached an average volume of 100–200 mm^3. The mice were randomly divided into six groups (n = 14/group).
(§4) Body weight and tumor size were assessed every 3 days. Tumor size was measured using a caliper, the volumes were calculated according to the following standard formula: V = (L × W^2)/2 (V = tumor volume, L = largest diameter of tumor, W = smallest diameter of tumor). On day 25, all mice were sacrificed by cervical dislocation, and the tumors were removed and weighed.

[15] = system: H1299; assay: MTT cell viability assay, H1299; assay type: cell-based, human; settings: 48 h
Experimental: as §1

[16] = system: H292 cells; assay: Cell cycle by PI flow cytometry, H292; assay type: cell-based, human; settings: diplatin 50 μM, DDP 5 μM, CBP 100 μM
Experimental: (§2) Then, the cells were trypsinized, washed with PBS, and fixed in 1.5 ml 95% ethanol and left at 4°C overnight. They were then incubated with RNase and stained with propidium iodide (PI) (Multi Sciences Biotech Co., Ltd). PI absorbance was determined using a Cytomics FC500 Flow Cytometer (Beckman Coulter, USA).

[17] = system: H460 cells; assay: Cell cycle by PI flow cytometry, H460; assay type: cell-based, human; settings: diplatin 50 µM, DDP 5 µM, CBP 100 µM
Experimental: as §2

[18] = system: A549 xenograft tumors; assay: A549 xenograft tumor growth in nude mice; assay type: in vivo; settings: 30, 60, 120 mg/kg, tail vein every 3 days
Experimental: as §3, §4

[19] = system: H292 xenograft tumor; assay: H292 xenograft tumor growth in nude mice; assay type: in vivo; settings: 120 mg/kg, tail vein every 3 days
Experimental: as §3, §4

[20] = system: A549 cells; assay: Cell cycle by PI flow cytometry, A549; assay type: cell-based, human; settings: diplatin 50 μM, DDP 5 μM, CBP 100 μM
Experimental: as §2

CCN(CC)CCCCC1C(=O)[O][Pt][O]C1=O.N[C@@H]1CCCC[C@H]1N.O=P(O)(O)O [Diplatin]
time of maximum platinum levels in the plasma [1]: 0.33 h | IC50 [2]: 133 µM | renal pathology in rats [3]: nephrotoxicity | IC50 [4]: 30.9 µM | IC50 [5]: 24.6 µM | effect on LTEP-A-2 xenograft tumor volume and weight [6]: significant inhibition on xenograft tumor volume and weight | Mice ED50 [7]: 52.0 mg/kg | concentration of apparent maximum JNK phosphorylation ([8]; 0.5 h exposure): 25 µM | Erk1/2 and p38 phosphorylation ([8]; diplatin 10, 25, 50 μM, DDP 5 μM, CBP 100 μM): failed to induce Erk1/2 and p38 phosphorylation | JNK phosphorylation levels ([8]; diplatin 10–50 μM, DDP 10 μM, 0.5 h): elevated | IC50 [9]: 161 µM | IC50 [10]: 102 µM | VEGF expression in tumor sections compared to the control ([11]; 120 mg/kg): lower expression of VEGF | p53 and Bax expression in the A549 and H292 tumor sections ([11]; 120 mg/kg): significantly enhanced | effect on p53 expression in tumor sections compared with DDP and CBP treatment ([11]; diplatin 120 mg/kg vs DDP and CBP): nearly two-fold more potent | IC50 [12]: 25 µM | IC50 ([13]; BEAS-2B normal lung epithelial cells, MTT, 48 h): 47.9 µM | suppression of the viability of BEAS-2B cells compared to DDP ([13]; vs DDP): threefold less suppression | effect on body weight ([14]; diplatin 30 mg/kg and 60 mg/kg): no observable effects | reduction of body weight by day 25 ([14]; diplatin 120 mg/kg, CBP 60 mg/kg, every 3 days i.v.): 14.38% | IC50 [15]: 57.5 µM | effect on cell cycle distribution [16]: failed to arrest any portion of the cell cycle | effect on cell cycle distribution [17]: failed to arrest the cells in the G2/M phase | effect on growth of A549 xenograft tumors [18]: dose-dependently inhibited the growth | inhibition of H292 xenograft tumor growth [19]: 65.0% | effect on cell cycle distribution [20]: significant accumulation of cells in G2/M phase
